Laboratory results as given in patent US9868748B2, “Thiazolopyrrolidine inhibitors of ROR- γ” (Vitae Pharmaceuticals, Inc., priority 2013, dated 2018).
Like-named read-outs stand apart in the source and are kept apart here.

Tests used:
[1] = target: full-length RORγt in Jurkat cells (Homo sapiens (Human), UniProt P51449); experiment: RORγt 5xRORE Assay in Jurkat Cells (Assay 2); type: cell-based; conditions: Nanoluc luciferase reporter, 16-18 hrs
How it was run: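 Inverse agonist activity was read as NanoGlo luminescence from conditioned medium after 16–18 h compound exposure (37 °C, 0.1% DMSO final). The cells were Jurkat, transiently transfected with RORγt and a secNluc reporter carrying five RORE repeats, seeded 80,000 per well in delipidated-serum RPMI.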

[2] = target: recombinant RORγ Ligand Binding Domain (LBD) protein (Homo sapiens (Human), UniProt P51449); experiment: Radio-Ligand RORγ Binding Assay (Assay 1); conditions: competition with 25-hydroxy [26,27-3H]-cholesterol, SPA, read-out: RORγ Binding Ki Range*
How it was run: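 Recombinant human RORγ ligand binding domain (6×His-GST fusion, 24 nM stock) competed with tritiated 25-hydroxycholesterol (8.6 nM stock) in HEPES buffer pH 7.4 with detergents and DTT; poly-Lys YSi SPA beads, room temperature, tritium SPA signal. Four-parameter IC50 from semi-log dilutions, normalised to DMSO and 10 μM T0901317, then Ki via KD equation.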

[3] = Table 9, read-out: RORγt5X IC50 Range*
[4] = Table 8, read-out: RORγt5X IC50 Range*

recombinant RORγ Ligand Binding Domain (LBD) protein, sequence (P51449 269-508): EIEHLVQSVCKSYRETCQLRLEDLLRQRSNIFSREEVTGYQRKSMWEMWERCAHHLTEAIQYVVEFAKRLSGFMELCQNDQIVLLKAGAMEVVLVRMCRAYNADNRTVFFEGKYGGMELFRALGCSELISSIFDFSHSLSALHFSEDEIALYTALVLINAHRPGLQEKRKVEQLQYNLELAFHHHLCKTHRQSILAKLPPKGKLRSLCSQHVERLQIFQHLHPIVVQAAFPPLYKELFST
full-length RORγt in Jurkat cells, sequence (P51449 other isoform, or with tags, fused parts or gaps): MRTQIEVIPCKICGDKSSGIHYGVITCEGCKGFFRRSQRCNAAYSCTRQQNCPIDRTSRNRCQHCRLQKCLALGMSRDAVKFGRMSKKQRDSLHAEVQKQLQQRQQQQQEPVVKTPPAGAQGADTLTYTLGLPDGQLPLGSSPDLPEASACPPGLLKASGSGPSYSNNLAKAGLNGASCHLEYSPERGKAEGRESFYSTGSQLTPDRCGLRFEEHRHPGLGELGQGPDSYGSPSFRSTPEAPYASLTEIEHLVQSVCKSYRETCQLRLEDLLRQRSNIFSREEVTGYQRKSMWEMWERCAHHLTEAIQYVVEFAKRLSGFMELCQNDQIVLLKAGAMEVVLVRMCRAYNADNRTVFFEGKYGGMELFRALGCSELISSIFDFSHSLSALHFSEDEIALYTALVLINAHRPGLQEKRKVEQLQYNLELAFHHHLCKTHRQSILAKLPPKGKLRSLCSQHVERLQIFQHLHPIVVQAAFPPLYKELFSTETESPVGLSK

Compound: CCS(=O)(=O)c1ccc(CC(=O)Nc2nc3c(s2)CN(Cc2ccn(C(F)F)c(=O)c2)[C@H]3C(C)C)cc1
- IC50 [1, 3]: < 100 nM
- Ki ([2]; Table 9): < 100 nM

Compound: CCS(=O)(=O)c1ccc(CC(=O)Nc2nc3c(s2)CN(C[C@H]2CC[C@H](OC)CC2)[C@H]3C(C)C)cc1
- IC50 [1, 3]: 100 to 1000 nM
- Ki ([2]; Table 9): < 100 nM

Compound: CCS(=O)(=O)c1ccc(CC(=O)Nc2nc3c(s2)CN(Cc2ccnc(C(F)(F)F)c2)[C@@H]3C(C)C)cc1
- IC50 [1, 3]: > 1000 nM
- Ki ([2]; Table 9): 100 to 1000 nM

Compound: CCS(=O)(=O)c1ccc(CC(=O)Nc2nc3c(s2)CN(Cc2ccc(F)c(F)c2)[C@H]3C(C)C)cc1
- IC50 [1, 3]: > 1000 nM
- Ki ([2]; Table 9): < 100 nM

Compound: CC(C)[C@@H]1c2nc(NC(=O)Cc3ccc(S(C)(=O)=O)cc3)sc2CN1Cc1ccc(C(F)(F)F)cc1F
- IC50 [1, 3]: 100 to 1000 nM
- Ki ([2]; Table 9): 100 to 1000 nM

Compound: CC(C)[C@H]1c2nc(NC(=O)Cc3ccc(F)c(F)c3)sc2CN1Cc1ccc(C(F)(F)F)cc1
- IC50 [1, 3]: 100 to 1000 nM
- Ki ([2]; Table 9): 100 to 1000 nM

Compound: CCS(=O)(=O)c1ccc(CNC(=O)c2nc3c(s2)CN(Cc2ccc(OC(F)F)cc2)[C@H]3C(C)C)cc1 [I-J6]
- IC50 [1, 4]: < 100 nM
- Ki ([2]; Table 8): < 100 nM

Compound: CCc1ccc(CN2Cc3sc(NC(=O)Cc4ccc(S(C)(=O)=O)cc4)nc3[C@H]2C(C)C)cc1
- IC50 [1, 3]: > 1000 nM
- Ki ([2]; Table 9): < 100 nM

Compound: CCS(=O)(=O)c1cnc(CNC(=O)c2nc3c(s2)CN(Cc2ccc(C#N)cc2)[C@H]3C(C)C)nc1
- IC50 [1, 3]: 100 to 1000 nM
- Ki ([2]; Table 9): < 100 nM

Compound: CCS(=O)(=O)c1ccc(CC(=O)Nc2nc3c(s2)CN([C@H](C)c2c(F)cc(Cl)cc2F)[C@H]3C(C)C)cc1
- IC50 [1, 3]: < 100 nM
- Ki ([2]; Table 9): < 100 nM

Compound: CCS(=O)(=O)c1ccc(CC(=O)Nc2nc3c(s2)CN(Cc2ccc(OC)cc2)[C@@H]3C(C)C)cc1
- IC50 [1, 3]: > 1000 nM
- Ki ([2]; Table 9): < 100 nM

Compound: CCS(=O)(=O)c1ccc(CC(=O)Nc2nc3c(s2)CN(Cc2ccc(Cl)cc2)[C@H]3C(C)C)c(C#N)c1
- IC50 [1, 3]: < 100 nM
- Ki ([2]; Table 9): < 100 nM

Compound: CCS(=O)(=O)c1ccc(CC(=O)Nc2nc3c(s2)CN(c2ncc(C(F)(F)F)cn2)[C@H]3C(C)C)cc1
- IC50 [1, 3]: > 1000 nM
- Ki ([2]; Table 9): < 100 nM

Compound: CC(C)[C@@H]1c2nc(NC(=O)Cc3ccc(S(C)(=O)=O)cc3)sc2CN1Cc1cccc(Cl)c1
- IC50 [1, 3]: > 1000 nM
- Ki ([2]; Table 9): < 100 nM

Compound: CCS(=O)(=O)c1ccc(CC(=O)Nc2nc3c(s2)CN(C[C@H]2CC[C@@](C)(OC)CC2)[C@H]3C(C)C)nc1 [I-C6]
- IC50 [1, 4]: < 100 nM
- Ki ([2]; Table 8): < 100 nM

Compound: CCS(=O)(=O)c1ccc(CC(=O)Nc2nc3c(s2)CN([C@H](C)Cc2ccccc2)[C@@H]3C(C)C)cc1
- IC50 [1, 3]: > 1000 nM
- Ki ([2]; Table 9): < 100 nM

Compound: CCS(=O)(=O)c1ccc(CC(=O)Nc2nc3c(s2)CN(C[C@H]2CC[C@H](C(F)(F)F)CC2)[C@H]3C(C)C)nc1 (single isomer, unassigned)
- IC50 [1, 3]: < 100 nM
- Ki ([2]; Table 9): < 100 nM

Compound: CCS(=O)(=O)c1ccc(CNC(=O)c2nc3c(s2)CN(Cc2ccc(C(F)(F)F)cn2)[C@H]3C(C)C)cc1 [I-J4]
- IC50 [1, 4]: < 100 nM
- Ki ([2]; Table 8): < 100 nM

Compound: CCS(=O)(=O)c1ccc(CC(=O)Nc2nc3c(s2)CN(Cc2ccc(-c4ccc(=O)n(C)c4)cc2)[C@H]3C(C)C)nc1
- IC50 [1, 3]: < 100 nM
- Ki ([2]; Table 9): < 100 nM

Compound: CCS(=O)(=O)c1ccc(CC(=O)Nc2nc3c(s2)CN([C@H](C)c2ccc(C(F)(F)F)cc2)[C@H]3C(C)C)cc1 [I-A34]
- IC50 [1, 4]: < 100 nM
- Ki ([2]; Table 8): < 100 nM

Compound: CC(C)[C@H]1c2nc(NC(=O)Cc3ccc(C#N)cc3)sc2CN1Cc1ccc(Cl)cc1 [I-E1, (S)—N-(5-(4-chlorobenzyl)-4-isopropyl-5,6-dihydro-4H-pyrrolo[3,4-d]thiazol-2-yl)-2-(4-cyanophenyl)acetamide]
- IC50 [1, 4]: 100 to 1000 nM
- Ki ([2]; Table 8): < 100 nM

Compound: CCS(=O)(=O)c1ccc(CC(=O)Nc2nc3c(s2)CN(C[C@H]2CC[C@@H](C(F)(F)F)NC2)[C@H]3C(C)C)cc1 (single isomer, unassigned)
- IC50 [1, 3]: > 1000 nM
- Ki ([2]; Table 9): < 100 nM

Compound: CCS(=O)(=O)c1ccc(CC(=O)Nc2nc3c(s2)CN(C[C@H]2CC[C@](C)(OC)CC2)[C@H]3C(C)C)nc1 (single isomer, unassigned)
- IC50 [1, 3]: < 100 nM
- Ki ([2]; Table 9): < 100 nM

Compound: CCS(=O)(=O)c1ccc(CC(=O)Nc2nc3c(s2)CN(Cc2ccc(C(F)(F)F)c(OC)n2)[C@H]3C(C)C)cc1 [I-A31]
- IC50 [1, 4]: < 100 nM
- Ki ([2]; Table 8): < 100 nM

Compound: CC(C)[C@H]1c2nc(NC(=O)Cc3ccc(S(C)(=O)=O)cc3)sc2CN1[C@@H](C)c1ccc(C#N)c(F)c1 [I-B12]
- IC50 [1, 4]: < 100 nM
- Ki ([2]; Table 8): < 100 nM

Compound: CCS(=O)(=O)c1ccc(CC(=O)Nc2nc3c(s2)CN(C(C)c2ccc(F)cc2)[C@@H]3C(C)C)cc1 (stereo partly shown)
- IC50 [1, 3]: > 1000 nM
- Ki ([2]; Table 9): < 100 nM

Compound: CCS(=O)(=O)c1ccc(CC(=O)Nc2nc3c(s2)CN(C[C@H]2CC[C@@H](C(F)(F)F)OC2)[C@H]3C(C)C)cc1 (single isomer, unassigned)
- IC50 [1, 3]: > 1000 nM
- Ki ([2]; Table 9): < 100 nM

Compound: CCS(=O)(=O)c1ccc(CC(=O)Nc2nc3c(s2)CN(Cc2ccc(C#N)c(F)c2)[C@@H]3C(C)C)cc1
- IC50 [1, 3]: 100 to 1000 nM
- Ki ([2]; Table 9): 100 to 1000 nM

Compound: CCS(=O)(=O)c1ccc(CC(=O)Nc2nc3c(s2)CN(Cc2cccc(Br)c2)[C@@H]3C(C)C)cc1
- IC50 [1, 3]: > 1000 nM
- Ki ([2]; Table 9): < 100 nM

Compound: CCS(=O)(=O)c1ccc(CC(=O)Nc2nc3c(s2)CN(Cc2ccc(C#N)c(Cl)c2)[C@H]3C(C)C)nc1 [I-C10]
- IC50 [1, 4]: < 100 nM
- Ki ([2]; Table 8): < 100 nM

Compound: CC(C)[C@H]1c2nc(NC(=O)Cc3ccc(S(C)(=O)=O)cc3)sc2CN1Cc1ccc(C#N)cc1F [I-B17]
- IC50 [1, 4]: < 100 nM
- Ki ([2]; Table 8): < 100 nM

Compound: CC(C)[C@@H]1c2nc(NC(=O)Cc3ccc(S(C)(=O)=O)cc3)sc2CN1Cc1cccc(C#N)c1
- IC50 [1, 3]: > 1000 nM
- Ki ([2]; Table 9): 100 to 1000 nM

Compound: CCS(=O)(=O)c1ccc(CC(=O)Nc2nc3c(s2)CN([C@@H](C)c2c(F)cc(Cl)cc2F)[C@H]3C(C)C)cc1 (single isomer, unassigned)
- IC50 [1, 3]: < 100 nM
- Ki ([2]; Table 9): < 100 nM

Compound: CC[C@@H]1c2nc(NC(=O)Cc3ccc(S(C)(=O)=O)cc3)sc2CN1Cc1cccc(C(F)(F)F)c1
- IC50 [1, 3]: > 1000 nM
- Ki ([2]; Table 9): < 100 nM

Compound: CCS(=O)(=O)c1ccc(CC(=O)Nc2nc3c(s2)CN(Cc2ccn(C)c(=O)c2)[C@H]3C(C)C)cc1
- IC50 [1, 3]: > 1000 nM
- Ki ([2]; Table 9): 100 to 1000 nM

Compound: CCS(=O)(=O)c1ccc(CC(=O)Nc2nc3c(s2)CN(c2nc(C)cc(C(F)(F)F)n2)[C@H]3C(C)C)cc1
- IC50 [1, 3]: > 1000 nM
- Ki ([2]; Table 9): < 100 nM

Compound: CC(C)[C@H]1c2nc(NC(=O)Cc3ccc(-c4nnn(C)n4)cc3)sc2CN1Cc1ccc(Cl)cc1
- IC50 [1, 3]: 100 to 1000 nM
- Ki ([2]; Table 9): 100 to 1000 nM

Compound: CCS(=O)(=O)c1ccc(CC(=O)Nc2nc3c(s2)CN(C[C@H]2CC[C@](C)(C#N)CC2)[C@H]3C(C)C)cc1 (single isomer, unassigned)
- IC50 [1, 3]: > 1000 nM
- Ki ([2]; Table 9): < 100 nM

Compound: CCS(=O)(=O)c1ccc(CC(=O)Nc2nc3c(s2)CN(C[C@H]2CC[C@H](O)CC2)[C@H]3C(C)C)cc1
- IC50 [1, 3]: < 100 nM
- Ki ([2]; Table 9): < 100 nM

Compound: CCS(=O)(=O)c1ccc(CC(=O)Nc2nc3c(s2)CN(Cc2cccc(C(F)(F)F)c2)[C@H]3C(C)C)cc1 [I-A8]
- IC50 [1, 4]: > 1000 nM
- Ki ([2]; Table 8): < 100 nM

Compound: CCS(=O)(=O)c1ccc(CC(=O)Nc2nc3c(s2)CN(Cc2cnc(C)nc2)[C@H]3C(C)C)cc1
- IC50 [1, 3]: 100 to 1000 nM
- Ki ([2]; Table 9): < 100 nM

Compound: COC(=O)c1ccc(CN2Cc3sc(C(=O)NCc4ccc(S(C)(=O)=O)cc4)nc3[C@@H]2C(C)C)cc1 [I-K3]
- IC50 [1, 4]: < 100 nM
- Ki ([2]; Table 8): < 100 nM

Compound: CC(C)[C@H]1c2nc(NS(=O)(=O)c3ccc(CC(=O)O)cc3)sc2CN1Cc1ccc(Cl)cc1 [I-D1, (S)-2-(4-(N-(5-(4-chlorobenzyl)-4-isopropyl-5,6-dihydro-4H-pyrrolo[3,4-d]thiazol-2-yl)sulfamoyl)phenyl)acetic acid]
- IC50 [1, 4]: > 1000 nM
- Ki ([2]; Table 8): < 100 nM

Compound: CCS(=O)(=O)c1ccc(CC(=O)Nc2nc3c(s2)CN(C[C@H]2CCCCO2)[C@H]3C(C)C)cc1 (relative stereo)
- IC50 [1, 3]: > 1000 nM
- Ki ([2]; Table 9): < 100 nM

Compound: CC(C)[C@@H]1c2nc(NC(=O)Cc3ccc(S(C)(=O)=O)cc3)sc2CN1Cc1ccc(Cl)cc1
- IC50 [1, 3]: 100 to 1000 nM
- Ki ([2]; Table 9): 100 to 1000 nM

Compound: CCS(=O)(=O)c1ccc(CC(=O)Nc2nc3c(s2)CN(Cc2c(F)cc(C#N)cc2F)[C@H]3C(C)C)cc1
- IC50 [1, 3]: 100 to 1000 nM
- Ki ([2]; Table 9): < 100 nM

Compound: CCS(=O)(=O)c1ccc(CC(=O)Nc2nc3c(s2)CN(C[C@H]2CC[C@](O)(C(F)(F)F)CC2)[C@H]3C(C)C)cc1 (single isomer, unassigned)
- IC50 [1, 3]: < 100 nM
- Ki ([2]; Table 9): < 100 nM
